Source: PMC13492380, “Dissecting Structural and Functional Determinants of Microtubules Stabilization through Guided Chemical Modulation” (Journal of Medicinal Chemistry, 2026)
Where two headings read alike, the source gives them in different places.

Assays:
[1] = tested on: Kb-3.1 cells (HeLa subclone); experiment: MTT cytotoxicity assay, Kb-3.1; assay type: cell-based; conditions: Homo sapiens, read-out: Cytotoxicity IC50 Kb-3.1
Experimental: Antiproliferative assays were performed as described.

[2] = tested on: Dynein Light Chain LC8 (retrograde transport) in SH-SY5Y cells; experiment: Cy5-DBP dynein binding probe tracking, live-cell imaging; assay type: cell-based, human; conditions: for Cy5-DBP Distance, normalized to control / Cy5-DBP Speed, normalized to control: 1 μM PTX or 2.5 μM FTX2, 1a or 1b, mean ± SEM
Description: Building on our ability to chemically modulate MT structure, we next explored how these changes influence signaling patterns involved in MAPs interactions. Given that MTs are key players in intracellular transport – guiding organelles, vesicles and chromosomes via molecular motors like dyneins and kinesins – we assessed the impact of our compounds on transport dynamics in neuroblastoma SH-SY5Y cells. We combined live-cell imaging with previously developed tracking peptides (Figure A): Cy5-DBP, which encompasses the sequence that specifically recognizes Dynein Light Chain LC8 (retrograde transport), and Cy5-KBP, with a sequence that binds to the tetratricopeptide repeat of the kinesin-1 light chain KLC1 (anterograde transport). […] However, this was for a short incubation period (1 to 2.5 h, including imaging time) to avoid mitotic arrest or compromise cell viability. We then assessed particle behavior by measuring mean track displacement and mean track velocity.
Cy5-KBP and Cy5-DBP tracking peptides were synthesized at CIB-Margarita Salas (CSIC), following a published protocol. Briefly, the peptide chains were assembled via solid phase peptide synthesis (SPPS) using fluorenylmethyloxycarbonyl (Fmoc) as N-terminal protecting group and, subsequently labeled with the organic dye cyanine 5 (Cy5) via a maleimide–thiol reaction between the N-terminal cysteine residues of the peptides and the commercially available Cy5-maleimide. The final peptides were purified via reverse phase HPLC, dissolved in DMSO to a final 2.5 mM concentration and stored in small aliquots at −20 °C. SH-SY5Y cells were seeded into μ-Slide 8-wells ibiTreat plates (ibidi, flat polymer coverslip-bottom, tissue culture treated) at a concentration of 35,000 cells/well and incubated for 48 h at 37 °C and 5% CO2. […] After this time, the culture medium was replaced by the drug working solution containing either Cy5-KBP or Cy5-DBP, and the plate was incubated for an additional 15 min at 37 °C and 5% CO2. Then, the culture medium was replaced with drug working solution without labeled peptide and the cells were imaged using a confocal laser scanning microscope Leica TCS SP8 with a 63x oil immersion objective that included a humidified incubation chamber, a CO2 controller and a heating unit. Cy5 dye was excited at 635 nm and the fluorescence emission was collected at 645–690 nm. Images were recorded every 1.793 s for 3 min as 2-layer-z-stacks. For each condition, two to three different fields were imaged in two separate experiments.
Single-peptide trajectories were tracked with the TrackMate plugin from the Fiji package software (https://imagej.net/TrackMate). Particles with an estimated blob diameter of 1–1.5 μm were detected using the Laplacian of Gaussian (LoG) detector and linked with the Linear motion LAP tracker. Only spots that were at a maximum distance of 2 μm were linked. Trajectories with less than 6 spots were discarded since they were probably artifactual, and track mean displacement and track mean velocity were calculated and normalized to control cells. Data were further analyzed with MATLAB to perform a Mean Square Displacement (MSD) analysis to determine the mode of displacement of the peptides followed over time. Briefly, for each trajectory the MSD function was calculated and its log–log representation fitted with a linear function (log(MSD(τ)) = […] x log(τ) + C). MSD curves with an R^2 coefficient <0.8 were removed. The slope (α) of each MSD curve determines the motion type of each particle and particles were classified into: constrained particles (CM) α < 1, Brownian particles (BM) α = 1, and transported particles (TM) α > 1. Two independent experiments were performed using three biological replicates (N = 6). Statistical analyses of normalized track mean displacement and track mean velocity were performed using an unpaired t test with Welch’s correction in GraphPad Prism 8 software. […]

Compound	IC50 ([1]; KB 3-1, 48 h) [nM]	Cy5-DBP Distance, normalized to control [2]	Cy5-DBP Speed, normalized to control [2]	IC50 ([1]; KB 3-1, MTT, 48 h, mean ± SEM) [nM]	reduction of Cy5-DBP particle displacement vs nontreated control cells ([2]; 1 μM PTX)
CC(=O)OC1C(=O)C2(C)C(OC(=O)CCCCC(=O)OC3CCc4ccccc43)CC3OCC3(OC(C)=O)C2C(OC(=O)c2ccccc2)C2(O)CC(OC(=O)C(O)C(NC(=O)c3ccccc3)c3ccccc3)C(C)=C1C2(C)C (stereo not shown) [1a, 7-O-(6″-O-(2‴,3‴-Dihydroinden-1‴-yl)hexanedioyl) Paclitaxel]	280 ± 30	0.92 ± 0.01	0.98 ± 0.02		
COc1ccc2c(c1)CC(NC(=O)CCCCCCCC(=O)OC1CC3OCC3(OC(C)=O)C3C(OC(=O)c4ccccc4)C4(O)CC(OC(=O)C(O)C(NC(=O)c5ccccc5)c5ccccc5)C(C)=C(C(OC(C)=O)C(=O)C13C)C4(C)C)CC2 [1b, 7-O-((S)-9″-(7‴-Methoxy-1‴,2‴,3‴,4‴-tetrahydronaphthalen-2‴-yl)amino) −9″-oxononanoyl) Paclitaxel]		0.92 ± 0.01	1.07 ± 0.01	150 ± 20	
CC(=O)O[C@H]1C(=O)[C@]2(C)[C@@H](OC(=O)[C@H](C)NC(=O)c3ccc(-c4c5cc(F)c(=O)cc-5oc5cc(O)c(F)cc45)c(C(=O)O)c3)C[C@H]3OC[C@@]3(OC(C)=O)[C@H]2[C@H](OC(=O)c2ccccc2)[C@]2(O)C[C@H](OC(=O)[C@H](O)[C@@H](NC(=O)c3ccccc3)c3ccccc3)C(C)=C1C2(C)C [FTX2, Flutax2]		1.06 ± 0.02	1.21 ± 0.02		
CC(=O)O[C@H]1C(=O)[C@@]2(C)[C@H]([C@H](OC(=O)c3ccccc3)[C@]3(O)C[C@H](OC(=O)[C@H](O)[C@@H](NC(=O)c4ccccc4)c4ccccc4)C(C)=C1C3(C)C)[C@]1(OC(C)=O)CO[C@@H]1C[C@@H]2O [PTX, Paclitaxel]				2.4 ± 0.2	approximately 20%
